Experimental data: US12052991B2, “Substituted pyridinyloxybenzenes and salts thereof and use thereof as herbicidal agents” (Bayer Aktiengesellschaft, priority 2018, dated 2024)

What was measured:
Type in all cases: in vivo
Bassia scoparia (KCHSC) [1] = test: Herbicidal pre-emergence action, test C (Table C11); conditions: visual scoring vs untreated controls
Source text: Seeds of mono- and dicotyledonous weed plants were placed in plastic pots in sandy loam soil (doubly sown with one species each of mono- or dicotyledonous weed plants per pot) and covered with soil. The compounds of the invention, formulated in the form of wettable powders (WP) or as emulsion concentrates (EC), were then applied onto the surface of the covering soil as aqueous suspension or emulsion with addition of 0.5% additive at a water application rate of 600 liters per hectare (converted). After the treatment, the pots were placed in a greenhouse and kept under good growth conditions for the test plants. After about 3 weeks, the effect of the preparations was scored visually in comparison with untreated controls as percentages. For example, 100% activity=the plants have died, 0% activity=like control plants. Tables C1 to C12 below show the effects of selected compounds of the general formula (I) according to Table 1 on various harmful plants and an application rate corresponding to 1280 or 320 g/ha, which were obtained by the experimental procedure mentioned above.

Veronica persica (VERPE) [2] = test: Herbicidal pre-emergence action, test C (Table C12); conditions: visual scoring vs untreated controls
Method in brief: (§1)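 Seeds are covered with sandy loam, and the formulated compound is applied to the soil surface before emergence at 1280 or 320 g/ha. Spray carries 0.5% additive at 600 L/ha. Damage is rated visually as percent versus untreated pots after roughly 3 weeks.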

[3] = test system: harmful plants ABUTH, AMARE, ECHCG, LOLRI, MATIN, POAAN, SETVI, STEME, ALOMY, DIGSA, KCHSC and VERPE; test: Herbicidal post-emergence action, summary of Tables B1-B12; conditions: application rate of 1280 or 320 g of active ingredient per hectare; summary in words
Method in brief: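 Greenhouse weeds in sandy loam treated post-emergence at the one-leaf stage, 2–3 weeks after sowing, with WP or EC formulations sprayed with 0.5% additive at 600 L/ha water, 1280 or 320 g/ha. Damage rated visually after about 3 weeks versus untreated controls (0% = like control, 100% = dead).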

[4] = test system: Abutilon theophrasti (ABUTH); test: Herbicidal pre-emergence action, test C (Table C5); conditions: visual scoring after about 3 weeks, 100% = plants have died, 0% = like control plants
Method in brief: as §1

[5] = test system: Amaranthus retroflexus (AMARE); test: Herbicidal pre-emergence action, test C (Table C6); conditions: visual scoring after about 3 weeks, 100% = plants have died, 0% = like control plants
Method in brief: as §1

[6] = test system: Abutilon theophrasti (ABUTH); test: Herbicidal post-emergence action (Table B5); conditions: rated visually after about 3 weeks, 100% = plants have died, 0% = like control plants
Method in brief: (§2)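 Visual percent activity relative to untreated controls (100% = plants dead, 0% = like controls) was scored about 3 weeks after treatment. Plants had been sprayed at the one-leaf stage with formulated compound at 1280 or 320 g/ha in 600 L/ha water containing 0.5% additive.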

[7] = test system: Echinochloa crus-galli (ECHCG); test: Herbicidal pre-emergence action, test C (Table C1); conditions: visual scoring after about 3 weeks, 100% = plants have died, 0% = like control plants
Method in brief: as §1

Veronica persica (VERPE) [8] = test: Herbicidal post-emergence action (Table B12); conditions: visual rating about 3 weeks after treatment, 100% = plants have died, 0% = like control plants
Method in brief: as §2

[9] = test system: harmful plants ABUTH, AMARE, ECHCG, LOLRI, MATIN, POAAN, SETVI, STEME, ALOMY, DIGSA, KCHSC and VERPE; test: Herbicidal pre-emergence action (test C), summary of Tables C1-C12; conditions: application rate of 1280 or 320 g of active ingredient per hectare; summary in words
Method in brief: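 Pre-emergence pot test in sandy loam: WP or EC formulations were sprayed onto the covering soil with 0.5% additive at 600 L/ha water, at 1280 or 320 g/ha. Plants were kept in the greenhouse, and activity was rated visually about 3 weeks later as % versus untreated controls (100% = dead).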

Lolium rigidum (LOLRI) [10] = test: Herbicidal pre-emergence action, test C (Table C2); conditions: dosage 1280 g/ha; visual scoring after about 3 weeks; 100% = plants have died, 0% = like control plants
Method in brief: as §1

[11] = test system: Alopecurus myosuroides (ALOMY); test: Herbicidal post-emergence action (Table B9); conditions: rated visually after about 3 weeks, 100% = plants have died, 0% = like control plants
Method in brief: as §2

Poa annua (POAAN) = test: Herbicidal pre-emergence action, test C (Table C3); conditions: visual scoring after about 3 weeks, 100% = plants have died, 0% = like control plants
Method in brief: as §1

[12] = test system: Matricaria inodora (MATIN); test: Herbicidal pre-emergence action, test C (Table C7); conditions: visual scoring after about 3 weeks, 100% = plants have died, 0% = like control plants
Method in brief: as §1

Lolium rigidum (LOLRI) [13] = test: Herbicidal post-emergence action (Table B2); conditions: 1280 g/ha; rated visually after about 3 weeks; 100% = plants have died, 0% = like control plants
Procedure: (§3) Seeds of mono- and dicotyledonous weed plants were placed in plastic pots in sandy loam soil (doubly sown with in each case one species of mono- or dicotyledonous weed plants per pot), covered with soil and cultivated in a greenhouse under controlled growth conditions. 2 to 3 weeks after sowing, the test plants were treated at the one-leaf stage. The compounds of the invention, formulated in the form of wettable powders (WP) or as emulsion concentrates (EC), were applied onto the green parts of the plants as aqueous suspension or emulsion with addition of 0.5% additive at a water application rate of 600 liters per hectare (converted). After the test plants had been kept in the greenhouse under optimum growth conditions for about 3 weeks, the activity of the preparations was rated visually in comparison to untreated controls. For example, 100% activity=the plants have died, 0% activity=like control plants. Tables B1 to B12 below show the effects of selected compounds of the general formula (I) according to Table 1 on various harmful plants and an application rate corresponding to 1280 or 320 g/ha, which were obtained by the experimental procedure mentioned above.

Setaria viridis (SETVI) [14] = test: Herbicidal post-emergence action (Table B4); conditions: 1280 g/ha; rated visually after about 3 weeks; 100% = plants have died, 0% = like control plants
Procedure: as §3

Stellaria media (STEME) [15] = test: Herbicidal pre-emergence action, test C (Table C8); conditions: visual scoring after about 3 weeks, 100% = plants have died, 0% = like control plants
Method in brief: as §1

Setaria viridis (SETVI) [16] = test: Herbicidal pre-emergence action, test C (Table C4); conditions: visual scoring after about 3 weeks, 100% = plants have died, 0% = like control plants
Method in brief: as §1

[17] = test system: Alopecurus myosuroides (ALOMY); test: Herbicidal pre-emergence action, test C (Table C9); conditions: visual scoring after about 3 weeks, 100% = plants have died, 0% = like control plants
Method in brief: as §1

Stellaria media (STEME) [18] = test: Herbicidal post-emergence action (Table B8); conditions: visual rating about 3 weeks after treatment, 100% = plants have died, 0% = like control plants
Method in brief: as §2

[19] = test system: Digitaria sanguinalis (DIGSA); test: Herbicidal post-emergence action (Table B10); conditions: visual rating about 3 weeks after treatment, 100% = plants have died, 0% = like control plants
Method in brief: as §2

[20] = test system: Amaranthus retroflexus (AMARE); test: Herbicidal post-emergence action (Table B6); conditions: visual rating about 3 weeks after treatment, 100% = plants have died, 0% = like control plants
Method in brief: as §2

Bassia scoparia (KCHSC) [21] = test: Herbicidal post-emergence action (Table B11); conditions: visual rating about 3 weeks after treatment, 100% = plants have died, 0% = like control plants
Method in brief: as §2

[22] = test system: Digitaria sanguinalis (DIGSA); test: Herbicidal pre-emergence action, test C (Table C10); conditions: visual scoring after about 3 weeks, 100% = plants have died, 0% = like control plants
Method in brief: as §1

Compound: Fc1cc(Cl)cnc1Oc1ccccc1-c1cncc(C(F)(F)F)c1 [Example 1-72]
- Pre-emergence action against Bassia scoparia (KCHSC) (Bassia scoparia (KCHSC) [1]; dosage 320 g/ha): 100%
- Pre-emergence action against Bassia scoparia (KCHSC) (Bassia scoparia (KCHSC) [1]; dosage 1280 g/ha): 100%
- Pre-emergence action against Veronica persica (VERPE) (Veronica persica (VERPE) [2]; dosage 320 g/ha): 100%
- Pre-emergence action against Veronica persica (VERPE) (Veronica persica (VERPE) [2]; dosage 1280 g/ha): 100%
- herbicidal activity against the harmful plants of Tables B1-B12 in post-emergence treatment [3]: very good herbicidal activity
- Pre-emergence action against Abutilon theophrasti (ABUTH) ([4]; dosage 320 g/ha): 100%
- Pre-emergence action against Abutilon theophrasti (ABUTH) ([4]; dosage 1280 g/ha): 100%
- Pre-emergence action against Amaranthus retroflexus (AMARE) ([5]; dosage 320 g/ha): 100%
- Pre-emergence action against Amaranthus retroflexus (AMARE) ([5]; dosage 1280 g/ha): 100%
- Post-emergence action against Abutilon theophrasti (ABUTH) ([6]; 320 g/ha): 100%
- Post-emergence action against Abutilon theophrasti (ABUTH) ([6]; 1280 g/ha): 100%
- Pre-emergence action against Echinochloa crus-galli (ECHCG) ([7]; dosage 320 g/ha): 100%
- Pre-emergence action against Echinochloa crus-galli (ECHCG) ([7]; dosage 1280 g/ha): 100%
- Post-emergence action against Veronica persica (VERPE) (Veronica persica (VERPE) [8]; dosage 320 g/ha): 100%
- Post-emergence action against Veronica persica (VERPE) (Veronica persica (VERPE) [8]; dosage 1280 g/ha): 100%
- herbicidal activity against the harmful plants of Tables C1-C12 in pre-emergence treatment [9]: very good herbicidal activity
- Pre-emergence action against Lolium rigidum (LOLRI) (Lolium rigidum (LOLRI) [10]): 100%
- Post-emergence action against Alopecurus myosuroides (ALOMY) ([11]; 320 g/ha): 100%
- Post-emergence action against Alopecurus myosuroides (ALOMY) ([11]; 1280 g/ha): 100%
- Pre-emergence action against Poa annua (POAAN) (Poa annua (POAAN); dosage 320 g/ha): 100%
- Pre-emergence action against Poa annua (POAAN) (Poa annua (POAAN); dosage 1280 g/ha): 100%
- Pre-emergence action against Matricaria inodora (MATIN) ([12]; dosage 320 g/ha): 90%
- Pre-emergence action against Matricaria inodora (MATIN) ([12]; dosage 1280 g/ha): 100%
- Post-emergence action against Lolium rigidum (LOLRI) (Lolium rigidum (LOLRI) [13]): 100%
- Post-emergence action against Setaria viridis (SETVI) (Setaria viridis (SETVI) [14]): 90%
- Pre-emergence action against Stellaria media (STEME) (Stellaria media (STEME) [15]; dosage 320 g/ha): 90%
- Pre-emergence action against Stellaria media (STEME) (Stellaria media (STEME) [15]; dosage 1280 g/ha): 100%
- Pre-emergence action against Setaria viridis (SETVI) (Setaria viridis (SETVI) [16]; dosage 320 g/ha): 100%
- Pre-emergence action against Setaria viridis (SETVI) (Setaria viridis (SETVI) [16]; dosage 1280 g/ha): 100%
- Pre-emergence action against Alopecurus myosuroides (ALOMY) ([17]; dosage 320 g/ha): 100%
- Pre-emergence action against Alopecurus myosuroides (ALOMY) ([17]; dosage 1280 g/ha): 100%
- Post-emergence action against Stellaria media (STEME) (Stellaria media (STEME) [18]; dosage 320 g/ha): 100%
- Post-emergence action against Stellaria media (STEME) (Stellaria media (STEME) [18]; dosage 1280 g/ha): 100%
- Post-emergence action against Digitaria sanguinalis (DIGSA) ([19]; dosage 320 g/ha): 90%
- Post-emergence action against Digitaria sanguinalis (DIGSA) ([19]; dosage 1280 g/ha): 100%
- Post-emergence action against Amaranthus retroflexus (AMARE) ([20]; dosage 320 g/ha): 100%
- Post-emergence action against Amaranthus retroflexus (AMARE) ([20]; dosage 1280 g/ha): 100%
- Post-emergence action against Bassia scoparia (KCHSC) (Bassia scoparia (KCHSC) [21]; dosage 320 g/ha): 100%
- Post-emergence action against Bassia scoparia (KCHSC) (Bassia scoparia (KCHSC) [21]; dosage 1280 g/ha): 100%
- Pre-emergence action against Digitaria sanguinalis (DIGSA) ([22]; dosage 320 g/ha): 100%
- Pre-emergence action against Digitaria sanguinalis (DIGSA) ([22]; dosage 1280 g/ha): 100%
